Measurements: publication PMC8678048 (Frontiers in Microbiology, 2021)
Where two headings read alike, the source gives them in different places. Positions of bridges follow the written chain, without caps; N, C: chain ends. Residues, ends and D or L forms follow the SMILES beside them.

Experiments:
[1] = test system: PAM cells
[2] = test system: thrombin; type: biochemical; conditions: 10μM
[3] = test system: Vero cells
[4] = test system: ASFV SY18 strain; type: cell-based, African swine fever virus
[5] = test system: human plasma (coagulation system); type: biochemical; conditions: pH 7.4

CC[C@H](C)[C@@H]1NC(=O)CNC(=O)[C@H](CO)NC(=O)[C@@H]2CSSC[C@@H](C(=O)N[C@@H](Cc3ccc(O)cc3)C(=O)O)NC(=O)[C@H](CCCCN)NC(=O)[C@@H]3CSSC[C@H](NC(=O)[C@H](CCC(N)=O)NC(=O)[C@H](Cc4ccc(O)cc4)NC(=O)[C@H](CCC(N)=O)NC(=O)[C@H](CC(N)=O)NC(=O)[C@H](Cc4ccccc4)NC(=O)[C@@H]4CCCN4C(=O)[C@@H](NC(=O)CNC(=O)[C@H](Cc4ccc(O)cc4)NC(=O)CN)CSSC[C@H](NC(=O)[C@H](Cc4ccc(O)cc4)NC(=O)CNC(=O)CNC(=O)[C@H](CCCCN)NC(=O)[C@H](Cc4ccc(O)cc4)NC(=O)CNC(=O)[C@H](CCCNC(=N)N)NC1=O)C(=O)N[C@@H](CCCCN)C(=O)NCC(=O)N[C@@H]([C@@H](C)O)C(=O)N[C@@H](Cc1ccccc1)C(=O)N[C@@H](CCCCN)C(=O)N[C@@H](CCC(N)=O)C(=O)N[C@@H]([C@@H](C)O)C(=O)N3)C(=O)N[C@@H](Cc1c[nH]cn1)C(=O)N[C@@H](CO)C(=O)N[C@@H](Cc1c[nH]cn1)C(=O)N2 [OPTX-1] (H-GYGCPFNQYQCHSHCSGIRGYKGGYCKGTFKQTCKCY-OH; disulfide 4-26, 11-34, 15-36 (inferred); N-terminus and C-terminus assumed)
cytotoxicity on PAM cells [1]: more significant than on Vero cells | thrombin inhibitory effect [2]: the activity of thrombin was inhibited | cytotoxicity on Vero cells [3]: less cytotoxicity on Vero cells than other defensins | overall cytotoxicity (Vero and PAM cells) [3]: relative low cytotoxicities | inhibition of ASFV infection/replication ([4]; 5μM): inhibited ASFV infection in PAM cells | inhibition of ASFV infection/replication ([4]; 10μM): inhibited ASFV infection in PAM cells | anticoagulant effect (plasma recalcification time) [5]: show anticoagulant effects in plasma-based coagulation assays
